Reference: article PMC9090415, “Discovery of small molecule inhibitors of Plasmodium falciparum apicoplast DNA polymerase” (Journal of Enzyme Inhibition and Medicinal Chemistry, 2022)

Biological target: P. falciparum apicoplast DNA polymerase (Pf-apPOL) (Plasmodium falciparum, UniProt Q8ILY1)
Experiment: Fluorescence-based high-throughput DNA polymerase assay (molecular beacon), primary screen and dose-response
Type: biochemical
Conditions: for DNA Pol: 90 min, 10 µM; for % inhibition apPOL 180' 2.5 / % inhibition apPOL 180' 5 / % inhibition apPOL 180' 10 / % inhibition apPOL 180' 20 / % inhibition apPOL 180' 40 / % inhibition apPOL 180' 80: read at 180'
Outline: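 Single-point screening used 10 µM compound with 20 nM polymerase, 20 nM hairpin substrate and 6 µM dNTPs for 90 min at 25 °C. Confirmatory titrations (2.5–80 µM) followed fluorescence at three times, and IC50 was derived from a fit including a cooperativity term n.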

[1] = "DNA Pol" of the 186 hits list (screen value)

Chain of P. falciparum apicoplast DNA polymerase (Pf-apPOL) (Q8ILY1 entry or part of it): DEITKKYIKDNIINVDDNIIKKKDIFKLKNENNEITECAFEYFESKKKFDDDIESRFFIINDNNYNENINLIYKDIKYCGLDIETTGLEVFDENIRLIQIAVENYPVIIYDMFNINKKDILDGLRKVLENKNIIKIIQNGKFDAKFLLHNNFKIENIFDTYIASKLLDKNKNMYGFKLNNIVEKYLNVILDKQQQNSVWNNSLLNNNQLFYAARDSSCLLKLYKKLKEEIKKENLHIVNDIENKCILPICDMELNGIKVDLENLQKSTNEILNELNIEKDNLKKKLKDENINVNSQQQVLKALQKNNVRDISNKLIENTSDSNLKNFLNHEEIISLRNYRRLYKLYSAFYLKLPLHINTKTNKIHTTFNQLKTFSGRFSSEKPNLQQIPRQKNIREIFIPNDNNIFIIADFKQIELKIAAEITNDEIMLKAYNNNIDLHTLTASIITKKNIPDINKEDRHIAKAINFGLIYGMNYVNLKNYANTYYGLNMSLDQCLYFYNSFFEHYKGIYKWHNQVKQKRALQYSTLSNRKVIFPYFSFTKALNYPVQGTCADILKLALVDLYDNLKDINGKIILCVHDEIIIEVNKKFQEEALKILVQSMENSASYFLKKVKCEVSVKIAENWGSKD

O=C1C(=Cc2ccccc2O)Oc2ccc(O)cc21 [KU0196475]
DNA Pol [1]: 17
% inhibition Apo pol 10' (DRC-1, concentration 2.5): -5.1779%
% inhibition Apo pol 10' (DRC-1, concentration 5): -7.445%
% inhibition Apo pol 10' (DRC-1, concentration 10): 3.3875%
% inhibition Apo pol 10' (DRC-1, concentration 20): 10.6699%
% inhibition Apo pol 10' (DRC-1, concentration 40): 41.0111%
% inhibition Apo pol 10' (DRC-1, concentration 80): 68.8562%
% inhibition Apol 90' (DRC-1, concentration 2.5): -1.782%
% inhibition Apol 90' (DRC-1, concentration 5): -1.611%
% inhibition Apol 90' (DRC-1, concentration 10): 10.1306%
% inhibition Apol 90' (DRC-1, concentration 20): 24.1034%
% inhibition Apol 90' (DRC-1, concentration 40): 57.9717%
% inhibition Apol 90' (DRC-1, concentration 80): 77.3146%
% inhibition apPOL 180' (DRC-1, concentration 2.5): 3.033%
% inhibition apPOL 180' (DRC-1, concentration 5): 3.658%
% inhibition apPOL 180' (DRC-1, concentration 10): 21.7009%
% inhibition apPOL 180' (DRC-1, concentration 20): 41.2058%
% inhibition apPOL 180' (DRC-1, concentration 40): 72.3539%
% inhibition apPOL 180' (DRC-1, concentration 80): 79.2388%
% inhibition Apo pol 5' (DRC-2, concentration 2.5): -0.68%
% inhibition Apo pol 5' (DRC-2, concentration 5): 0.901%
% inhibition Apo pol 5' (DRC-2, concentration 10): 18%
% inhibition Apo pol 5' (DRC-2, concentration 20): 28%
% inhibition Apo pol 5' (DRC-2, concentration 40): 40%
% inhibition Apo pol 5' (DRC-2, concentration 80): 45%
% inhibition Apol 40' (DRC-2, concentration 2.5): 0.208%
% inhibition Apol 40' (DRC-2, concentration 5): -7.41%
% inhibition Apol 40' (DRC-2, concentration 10): 18%
% inhibition Apol 40' (DRC-2, concentration 20): 33%
% inhibition Apol 40' (DRC-2, concentration 40): 54%
% inhibition Apol 40' (DRC-2, concentration 80): 65%
% inhibition ApPOL 90' (DRC-2, concentration 2.5): 0%
% inhibition ApPOL 90' (DRC-2, concentration 5): -14%
% inhibition ApPOL 90' (DRC-2, concentration 10): 15%
% inhibition ApPOL 90' (DRC-2, concentration 20): 29%
% inhibition ApPOL 90' (DRC-2, concentration 40): 53%
% inhibition ApPOL 90' (DRC-2, concentration 80): 66%
% inhibition apPOL 180' (DRC-2, concentration 2.5): -3.48%
% inhibition apPOL 180' (DRC-2, concentration 5): -88%
% inhibition apPOL 180' (DRC-2, concentration 10): 8%
% inhibition apPOL 180' (DRC-2, concentration 20): 17%
% inhibition apPOL 180' (DRC-2, concentration 40): 45%
% inhibition apPOL 180' (DRC-2, concentration 80): 63%
DNA Pol (primary screen value, DNA Pol): 17

Cc1ccc(N2CCC(NC(=O)Cc3cccs3)C2=O)cc1C (stereo not shown) [Molecule 57, O=C(NC1CCN(C1=O)c1ccc(c(c1)C)C)Cc1cccs1]
DNA Pol (186 hits, DNA Pol (screen value), unit not given): 30
DNA Pol ('DNA Pol' (screen value), unit not given): 30
% inhibition Apo pol 10' 2.5 (DRC-1, read at 10', concentration 2.5): -4.081%
% inhibition Apo pol 10' 5 (DRC-1, read at 10', concentration 5): 5.106%
% inhibition Apo pol 10' 10 (DRC-1, read at 10', concentration 10): 22.9359%
% inhibition Apo pol 10' 20 (DRC-1, read at 10', concentration 20): 41.5954%
% inhibition Apo pol 10' 40 (DRC-1, read at 10', concentration 40): 44.443%
% inhibition Apo pol 10' 80 (DRC-1, read at 10', concentration 80): 44.3208%
% inhibition Apol 90' 2.5 (DRC-1, read at 90', concentration 2.5): -2.123%
% inhibition Apol 90' 5 (DRC-1, read at 90', concentration 5): 4.8282%
% inhibition Apol 90' 10 (DRC-1, read at 90', concentration 10): 19.3171%
% inhibition Apol 90' 20 (DRC-1, read at 90', concentration 20): 42.7079%
% inhibition Apol 90' 40 (DRC-1, read at 90', concentration 40): 53.5477%
% inhibition Apol 90' 80 (DRC-1, read at 90', concentration 80): 61.4172%
% inhibition apPOL 180' 2.5 (DRC-1, concentration 2.5): -1.073%
% inhibition apPOL 180' 5 (DRC-1, concentration 5): 1.4295%
% inhibition apPOL 180' 10 (DRC-1, concentration 10): 11.4485%
% inhibition apPOL 180' 20 (DRC-1, concentration 20): 30.1368%
% inhibition apPOL 180' 40 (DRC-1, concentration 40): 47.6529%
% inhibition apPOL 180' 80 (DRC-1, concentration 80): 62.3607%
% inhibition Apo pol 5' (DRC-2, concentration 10): 24%
% inhibition Apo pol 5' (DRC-2, concentration 20): 24%
% inhibition ApPOL 90' (DRC-2, concentration 20): 47%
% inhibition ApPOL 90' (DRC-2, concentration 40): 47%
% inhibition Apo pol 5' 2.5 (DRC-2, read at 5', concentration 2.5): -1.72%
% inhibition Apo pol 5' 5 (DRC-2, read at 5', concentration 5): 2.54%
% inhibition Apo pol 5' 10 (DRC-2, read at 5', concentration 10): 24%
% inhibition Apo pol 5' 20 (DRC-2, read at 5', concentration 20): 24%
% inhibition Apo pol 5' 40 (DRC-2, read at 5', concentration 40): 6.44%
% inhibition Apo pol 5' 80 (DRC-2, read at 5', concentration 80): -4.26%
% inhibition Apol 40' 2.5 (DRC-2, read at 40', concentration 2.5): -1.82%
% inhibition Apol 40' 5 (DRC-2, read at 40', concentration 5): 5.58%
% inhibition Apol 40' 10 (DRC-2, read at 40', concentration 10): 32%
% inhibition Apol 40' 20 (DRC-2, read at 40', concentration 20): 44%
% inhibition Apol 40' 40 (DRC-2, read at 40', concentration 40): 39%
% inhibition Apol 40' 80 (DRC-2, read at 40', concentration 80): 37%
% inhibition ApPOL 90' 2.5 (DRC-2, read at 90', concentration 2.5): -2.11%
% inhibition ApPOL 90' 5 (DRC-2, read at 90', concentration 5): 5%
% inhibition ApPOL 90' 10 (DRC-2, read at 90', concentration 10): 30%
% inhibition ApPOL 90' 20 (DRC-2, read at 90', concentration 20): 47%
% inhibition ApPOL 90' 40 (DRC-2, read at 90', concentration 40): 47%
% inhibition ApPOL 90' 80 (DRC-2, read at 90', concentration 80): 48%
% inhibition apPOL 180' 2.5 (DRC-2, concentration 2.5): -1.11%
% inhibition apPOL 180' 5 (DRC-2, concentration 5): 3.34%
% inhibition apPOL 180' 10 (DRC-2, concentration 10): 22%
% inhibition apPOL 180' 20 (DRC-2, concentration 20): 43%
% inhibition apPOL 180' 40 (DRC-2, concentration 40): 49%
% inhibition apPOL 180' 80 (DRC-2, concentration 80): 55%

Cc1ccc(NC(=O)Cn2ccc3c(=O)[nH]ccc32)cc1F [Molecule 48, O=C(Cn1ccc2c1cc[nH]c2=O)Nc1ccc(c(c1)F)C]
DNA Pol [1]: 27
% inhibition Apo pol 10' (DRC-1, concentration 2.5): 0.4313%
% inhibition Apo pol 10' (DRC-1, concentration 5): 4.695%
% inhibition Apo pol 10' (DRC-1, concentration 10): 32.4815%
% inhibition Apo pol 10' (DRC-1, concentration 20): 59.9779%
% inhibition Apo pol 10' (DRC-1, concentration 40): 70.0783%
% inhibition Apo pol 10' (DRC-1, concentration 80): 79.5186%
% inhibition Apol 90' (DRC-1, concentration 2.5): -2.985%
% inhibition Apol 90' (DRC-1, concentration 5): -1.632%
% inhibition Apol 90' (DRC-1, concentration 10): 21.1063%
% inhibition Apol 90' (DRC-1, concentration 20): 47.267%
% inhibition Apol 90' (DRC-1, concentration 40): 60.3661%
% inhibition Apol 90' (DRC-1, concentration 80): 79.6602%
% inhibition apPOL 180' (DRC-1, concentration 2.5): -5.068%
% inhibition apPOL 180' (DRC-1, concentration 5): -4.79%
% inhibition apPOL 180' (DRC-1, concentration 10): 10.5149%
% inhibition apPOL 180' (DRC-1, concentration 20): 31.5724%
% inhibition apPOL 180' (DRC-1, concentration 40): 45.3289%
% inhibition apPOL 180' (DRC-1, concentration 80): 73.7679%
% inhibition Apo pol 5' (DRC-2, concentration 2.5): -5.29%
% inhibition Apo pol 5' (DRC-2, concentration 5): 3%
% inhibition Apo pol 5' (DRC-2, concentration 10): 22%
% inhibition Apo pol 5' (DRC-2, concentration 20): 44%
% inhibition Apo pol 5' (DRC-2, concentration 40): 46%
% inhibition Apo pol 5' (DRC-2, concentration 80): 38%
% inhibition Apol 40' (DRC-2, concentration 2.5): -4.56%
% inhibition Apol 40' (DRC-2, concentration 5): 4%
% inhibition Apol 40' (DRC-2, concentration 10): 23%
% inhibition Apol 40' (DRC-2, concentration 20): 57%
% inhibition Apol 40' (DRC-2, concentration 40): 65%
% inhibition Apol 40' (DRC-2, concentration 80): 62%
% inhibition ApPOL 90' (DRC-2, concentration 2.5): -6.53%
% inhibition ApPOL 90' (DRC-2, concentration 5): 2.25%
% inhibition ApPOL 90' (DRC-2, concentration 10): 21%
% inhibition ApPOL 90' (DRC-2, concentration 20): 56%
% inhibition ApPOL 90' (DRC-2, concentration 40): 67%
% inhibition ApPOL 90' (DRC-2, concentration 80): 67%
% inhibition apPOL 180' (DRC-2, concentration 2.5): -10%
% inhibition apPOL 180' (DRC-2, concentration 5): -4%
% inhibition apPOL 180' (DRC-2, concentration 10): 7%
% inhibition apPOL 180' (DRC-2, concentration 20): 49%
% inhibition apPOL 180' (DRC-2, concentration 40): 65%
% inhibition apPOL 180' (DRC-2, concentration 80): 69%
DNA Pol (primary screen value, DNA Pol): 27
